Experiment [1] relates to phosphorylation of MEK and ERK (BRAF^V600E downstream signaling). The experiment can be described thus: Western blot of MEK/ERK phosphorylation in A375 cells. In kind it is cell-based. Background: Immunoblotting shows a protein as a band on a membrane.
For experiment [2], the system named is panel of 244 kinases. Description: Kinome profiling against a panel of 244 kinases. The experiment is classed as biochemical. As to conditions: 1 μM compound.
For experiment [3], the system named is Ba/F3 BCR-ABL. The experiment can be described thus: MTT growth inhibition assay, Ba/F3 cells expressing Bcr-Abl. In kind it is cell-based. The conditions noted are these: ratio of IC50 values.
Experiment [4] concerns phosphorylation of Abl at Y412. The experiment can be described thus: Immunoblot of Abl Y412 phosphorylation in BCR-ABL-expressing Ba/F3 cells. In kind it is cell-based.

Consider four molecules from PMC5816697 (European journal of medicinal chemistry, 2018).

“Also recorded” adds a separate entry of the source.

For `CCCS(=O)(=O)Nc1ccc(F)c(C(=O)c2c[nH]c3ncc(-c4ccc(Cl)cc4)cc23)c1F` [Vem, vemurafenib, reference compound], the “effect on phosphorylation of MEK and ERK” value in experiment [1] (concentrations above 1 μM) is “abolished the phosphorylation of MEK and ERK”. The “effect on phosphorylation of MEK” value in experiment [1] (various concentrations, Figure 4) is “potently blocked phosphorylation of MEK”. Consider `CC(C)n1nc(C#Cc2cccc(NC(=O)c3cccc(C(F)(F)F)c3)c2)c2c(N)ncnc21` [Compound 1], for which, in experiment [2], the “number of kinases inhibited by over 90%” value is 44.

Consider `CCn1nc(C#Cc2cccc3cc(-c4cccc(C(F)(F)F)c4)ncc23)c2c(N)ncnc21` [Compound 2d, 1-Ethyl-3-((3-(3-(trifluoromethyl)phenyl)isoquinolin-8-yl)ethynyl)-1H-pyrazolo[3,4-d]p yrimidin-4-amine], for which, in experiment [1] (concentrations up to 100 μM), the “effect on phosphorylation of MEK” value was “failed to suppress the phosphorylation of MEK; also recorded: little effects”. With `CC(C)n1nc(C#Cc2cccc3cc(-c4ccc(CN5CCN(C)CC5)cc4)ncc23)c2c(N)ncnc21` [Compound 2f, 1-Isopropyl-3-((3-(4-((4-methylpiperazin-1-yl)methyl)phenyl)isoquinolin-8-yl)ethynyl)-1H-pyrazolo[3,4-d]pyrimidin-4-amine], the “fold less potent than parent compound 1 against Bcr-Abl Ba/F3 cells” value in experiment [3] was 44 fold. Moreover, in experiment [4], the “fold lower potency than compound 1, Abl Y412 phosphorylation” value is reported as “approximately 30 fold”.
